Like-named read-outs stand apart in the source and are kept apart here. Marks after values point to notes of the source that are not given here.
Tests used:
[1] = test system: B. mandrillaris trophozoites; test: Side-by-side dose response, trophozoite viability; assay type: cell-based, Balamuthia mandrillaris; settings: Balamuthia mandrillaris, 72 h, read-out: IC50, B. mandrillaris trophozoites, 72 h
Experimental: (§1) B. mandrillaris trophozoites were seeded at 4,000 amoebae per well into opaque and clear-bottom 96-well plates (Corning). Homogenous populations of B. mandrillaris cysts generated by galactose induction were seeded at 4,000 amoebae per well into opaque 96-well plates. HFF-1 (fibroblast), H4 (glial), U87 (glial), HEK-293T (kidney), and Hep-G2 (liver) cells were seeded at 3,000 cells per well in opaque 96-well plates 24 h prior to addition of drug. Stocks of nitroxoline (Selleck Chemicals) were dissolved in 100% DMSO at 10 mM. Stocks of azithromycin (Selleck Chemicals), pentamidine isethionate (Selleck Chemicals), and miltefosine (Selleck Chemicals) were dissolved in water at 10 mM. Drug stocks were serially diluted in water to generate 12-point dilution series, which were then used to treat assay wells containing B. mandrillaris or human cells at final concentrations ranging from 0.39 µM to 400 µM in 100-µl total well volumes. Control wells were treated with vehicle (DMSO or water) at concentrations corresponding to the final vehicle concentrations in each drug dilution series. After incubation for 72 h, 50 µl of CTG was added to all assay wells. Luminescence was measured with a Promega GloMax-Multi+ plate reader 2, 4, and […] after CTG addition. All dose-response experiments were performed with at least three independent biological replicates. IC50 values were determined as previously described. To quantify encystment under treated and untreated conditions, amoebae in individual assay wells were resuspended thoroughly and the number of cysts and number of trophozoites in 10-µl samples were counted by the use of a hemocytometer (SKC, Inc.). Cysts and trophozoites are morphologically distinct, making them simple to distinguish with bright-field microscopy (example images are shown in Fig. S1 in the supplemental material). Encystment assays were performed with three independent biological replicates.

B. mandrillaris cysts = test: Dose response, viability of preformed galactose-induced cysts; assay type: cell-based, Balamuthia mandrillaris; settings: 72 h
Experimental: Following the findings of a previous study, encystment of B. mandrillaris was induced by galactose exposure ([74]). B. mandrillaris trophozoites were grown to log phase in axenic media, and galactose was added to reach a final concentration of 12% (vol/vol). Amoebae were cultured in the induction medium until trophozoites were no longer observed (approximately 10 days). Galactose-induced cysts transition back to trophozoites after approximately 3 days of incubation in galactose-free axenic medium. Therefore, all assays with cysts were completed in the induction medium. […] All incubation steps for B. mandrillaris growth were carried out at 37°C with 5% CO2.
as §1

[2] = Cytotoxicity dose response, U87; assay type: cell-based; settings: human, U87 (glial) cells, unit not given in Table S3, drug concentrations in µM, read-out: CC50 U87 cell line
Experimental: as §1

[3] = Cytotoxicity dose response, H4; assay type: cell-based; settings: human, H4 (glial) cells, unit not given in Table S3, drug concentrations in µM, read-out: CC50 H4 cell line
Experimental: as §1

[4] = Cytotoxicity dose response, HEK-293T; assay type: cell-based; settings: human, HEK-293T (kidney) cells, unit not given in Table S3, drug concentrations in µM, read-out: CC50 HEK-293T cell line
Experimental: as §1

[5] = Cytotoxicity dose response, HFF-1; assay type: cell-based; settings: human, HFF-1 (fibroblast) cells, unit not given in Table S3, drug concentrations in µM, read-out: CC50 HFF-1 cell line
Experimental: as §1

[6] = Cytotoxicity dose response, Hep-G2; assay type: cell-based; settings: human, Hep-G2 (liver) cells, unit not given in Table S3, drug concentrations in µM, read-out: CC50 Hep-G2 cell line
Experimental: as §1

[7] = Cytotoxicity, mean of all cell lines; assay type: cell-based; settings: human, U87, H4, HEK-293T, HFF-1 and Hep-G2 cell lines (mean of all), unit inferred
Experimental: as §1

B. mandrillaris [8] = test: Encystment assay, counts of cysts and trophozoites; assay type: cell-based, Balamuthia mandrillaris; settings: 72 h of treatment with different drug concentrations
Experimental: as §1

B. mandrillaris [9] = test system: B. mandrillaris; parameters: method as in PMID 15347743, PMID 23869955, PMID 16579814; settings: in vitro; cited from earlier work
B. mandrillaris [10] = test: Recrudescence assay on HFF-1 monolayer after drug treatment; assay type: cell-based, Balamuthia mandrillaris
[11] = test system: B. mandrillaris trophozoites; test: Drug combination dose matrices, trophozoite viability (EOHSA model); assay type: cell-based, Balamuthia mandrillaris; settings: 72 h
Experimental: Experiments measuring the effect of drug combinations were carried out similarly to the dose-response experiments described above. B. mandrillaris trophozoites were seeded into opaque 96-well plates (Corning) at a density of 4,000 amoebae per well and then treated with concentrations of nitroxoline that differed across the rows of each plate and with concentrations of either miltefosine or pentamidine isethionate that differed down the columns to generate 7-by-7 dose combination matrices. Final drug concentrations ranged from 0.5 to 10 µM, from 10 to 100 µM, and from 1 to 100 µM for nitroxoline, miltefosine, and pentamidine isethionate, respectively. After incubation with drug or vehicle was performed for 72 h, CTG was added to all assay wells and luminescence was measured with a Promega Glomax-Multi+ plate reader. The percent effect of each drug combination was calculated as the reduction in luminescence value relative to vehicle-only controls. The additive effect of drug combinations was assessed using the excess over highest single agent (EOHSA) model ([76], [77]). […] Drug combination experiments were performed with three independent replicates.

[12] = test system: B. mandrillaris trophozoites; test: microbe, parasite or virus in culture; assay type: cell-based, Balamuthia mandrillaris; settings: Balamuthia mandrillaris, 72 h
[13] = test system: B. mandrillaris trophozoites; test: Secondary screening dose response, B. mandrillaris trophozoites; assay type: cell-based, Balamuthia mandrillaris; settings: Balamuthia mandrillaris, 72 h, read-out: B. mandrillaris IC50
Experimental: (§2) Secondary screening of hit compounds consisted of dose-response experiments to measure the toxicity of each compound to B. mandrillaris trophozoites, HFF-1 human fibroblast cells, and H4 human neuroglioma cells. Four 384-well plates were prepared prior to addition of drug as follows: one opaque plate (Corning) seeded with 3,000 HFF-1 cells per well in 60 µl complete media, one opaque plate seeded with 2,000 H4 cells per well in 60 µl complete media, one opaque plate containing 30 µl axenic media, and one clear plate (Corning) containing 30 µl axenic media. Opaque plates were used to measure the viability of trophozoites in the CTG assay, and clear plates were used for microscopic examination of cyst formation. HFF-1 and H4 plates were seeded 24 h prior to drug addition. The selected primary screen hits were added from 10 mM DMSO stocks into wells of all four test plates to reach final concentrations ranging from 0.06 µM to 30 µM (10 concentrations, 2-fold serial dilution). Negative-control wells received concentrations of DMSO corresponding to the amount of DMSO in each tested drug well (reaching a maximum of 0.3% DMSO). B. mandrillaris trophozoites were resuspended in axenic media and added to the plates containing drug dilutions in axenic media at a density of 3,000 amoebae per well in a final volume of 60 µl media. All plates were incubated for 72 h. Throughout the incubation period, the clear-bottom B. mandrillaris plate was monitored for large-scale changes to population encystment in response to drug treatment. After the 72-h incubation, 30 µl of CTG reagent was added to all wells of the opaque assay plates and luminescence was measured with a Promega GloMax-Multi+ plate reader at 2, 4, and 8 h after CTG addition.

[14] = test system: HFF-1 human fibroblast cells; test: Secondary screening dose response, toxicity to HFF-1 cells; assay type: cell-based; settings: Homo sapiens, HFF-1; 72 h; approximated from dose-response curves; read-out: HFF1 IC50
Experimental: as §2

[15] = test system: H4 human neuroglioma cells; test: Secondary screening dose response, toxicity to H4 cells; assay type: cell-based; settings: Homo sapiens; 72 h; approximated from dose-response curves
[16] = Balamuthia mandrillaris, read-out: IC50, B. mandrillaris cysts, preformed cysts, 12% galactose induction medium, 72 h
[17] = preformed cysts, 12% galactose induction medium, read-out: IC50, B. mandrillaris cysts
[18] = 28 µM for 72 h, then drug-free coculture with HFF-1, NRT = no recovery of trophozoites or host cell destruction observed through 28 days
[19] = 56 µM for 72 h, then drug-free coculture with HFF-1, 28-day experiment

## CC[C@H]1OC(=O)[C@H](C)[C@@H](O[C@H]2C[C@@](C)(OC)[C@@H](O)[C@H](C)O2)[C@H](C)[C@@H](O[C@@H]2O[C@H](C)C[C@H](N(C)C)[C@H]2O)[C@](C)(O)C[C@@H](C)CN(C)[C@H](C)[C@@H](O)[C@]1(C)O [Azithromycin]
[1]
  IC50: 244 µM
B. mandrillaris cysts; Balamuthia mandrillaris, preformed cysts, 12% galactose induction medium, read-out: IC50, B. mandrillaris cysts
  IC50: 788 µM
[2]
  CC50 at 72 h: 55 µM
[3]
  CC50 at 72 h: 95 µM
[4]
  CC50 at 72 h: 120 µM
[5]
  CC50 at 72 h: 116 µM
[6]
  CC50 at 72 h: 86.4 µM
[7]
  CC50 at 72 h: 94.4 µM
B. mandrillaris [8]
  encystment response: no substantial number of cysts was observed at any concentration
B. mandrillaris [9]
  inhibition of amoebic growth: amoebicidal or amoebistatic activity

## CCCCCCCCCCCCCCCCOP(=O)([O-])OCC[N+](C)(C)C [Miltefosine]
[1]
  IC50: 63.2 µM
B. mandrillaris cysts; [16]
  IC50: 76.5 µM
B. mandrillaris cysts; [17]
  IC50: 76.5 µM
[2]
  CC50 at 72 h: 34.7 µM
[3]
  CC50 at 72 h: 8.4 µM
[4]
  CC50 at 72 h: 68.8 µM
[5]
  CC50 at 72 h: 67.1 µM
[6]
  CC50 at 72 h: 66.1 µM
[7]
  CC50 at 72 h: 49 µM
B. mandrillaris [8]
  encystment response: no substantial number of cysts was observed at any concentration
B. mandrillaris [10]; [18]
  Mean no. of days for host cell clearance ± SE: 1.5 ± 0.33 days
B. mandrillaris [10]; [19]
  Mean no. of days for host cell clearance ± SE: 3.5 ± 2.64 days
B. mandrillaris [10]; 84 µM for 72 h, incomplete recovery of trophozoites and destruction of host cells on day 28
  Mean no. of days for host cell clearance ± SE: >28^b days
B. mandrillaris [10]; 72 h treatment, no recovery after 28 days of coculture
  concentration that completely eliminated B. mandrillaris populations: 112 µM
B. mandrillaris [10]; […] for 72 h, NRT = no recovery of trophozoites or host cell destruction observed through 28 days
  Mean no. of days for host cell clearance ± SE: NRT^a
[11]; Fig S2A, miltefosine 10 µM alone
  Percent inhibition of B. mandrillaris viability: -12%
[11]; Fig S2A, miltefosine 30 µM alone
  Percent inhibition of B. mandrillaris viability: -13%
[11]; Fig S2A, miltefosine 50 µM alone
  Percent inhibition of B. mandrillaris viability: 19%
[11]; Fig S2A, miltefosine 60 µM alone
  Percent inhibition of B. mandrillaris viability: 44%
[11]; Fig S2A, miltefosine 80 µM alone
  Percent inhibition of B. mandrillaris viability: 91%
[11]; Fig S2A, miltefosine 100 µM alone
  Percent inhibition of B. mandrillaris viability: 96%
B. mandrillaris [9]
  inhibition of amoebic growth: amoebicidal or amoebistatic activity

## N=C(N)c1ccc(OCCCCCOc2ccc(C(=N)N)cc2)cc1 [Pentamidine isethionate]
[12]
  inhibition at 20 µM: 35%
[13]
  IC50: 11 µM
[14]
  IC50: > 30 µM
[15]
  IC50: 8 µM
[1]
  IC50: 9.1 µM
B. mandrillaris cysts; [16]
  IC50: 26.3 µM
B. mandrillaris cysts; [17]
  IC50: 26.3 µM
[2]
  CC50 at 72 h: 20.7 µM
[3]
  CC50 at 72 h: 5.7 µM
[4]
  CC50 at 72 h: 4.8 µM
[5]
  CC50 at 72 h: 23.4 µM
[6]
  CC50 at 72 h: 0.7 µM
[7]
  CC50 at 72 h: 11.1 µM
B. mandrillaris [8]
  encystment response: increase in both the total number and the proportion of cysts
B. mandrillaris [10]; 3.5 µM for 72 h, then drug-free coculture with HFF-1, 28-day experiment
  Mean no. of days for host cell clearance ± SE: 1.33 ± 0.33 days
B. mandrillaris [10]; 7 µM for 72 h, then drug-free coculture with HFF-1, 28-day experiment
  Mean no. of days for host cell clearance ± SE: 7 ± 1.15 days
B. mandrillaris [10]; 14 µM for 72 h, then drug-free coculture with HFF-1, 28-day experiment
  Mean no. of days for host cell clearance ± SE: 13 ± 2.51 days
B. mandrillaris [10]; [18]
  Mean no. of days for host cell clearance ± SE: 15.33 ± 2.56 days
B. mandrillaris [10]; [19]
  Mean no. of days for host cell clearance ± SE: 16 ± 2 days
[11]; Fig S2B, pentamidine 1 µM alone
  Percent inhibition of B. mandrillaris viability: -1%
[11]; Fig S2B, pentamidine 5 µM alone
  Percent inhibition of B. mandrillaris viability: 32%
[11]; Fig S2B, pentamidine 10 µM alone
  Percent inhibition of B. mandrillaris viability: 51%
[11]; Fig S2B, pentamidine 20 µM alone
  Percent inhibition of B. mandrillaris viability: 62%
[11]; Fig S2B, pentamidine 50 µM alone
  Percent inhibition of B. mandrillaris viability: 68%
[11]; Fig S2B, pentamidine 100 µM alone
  Percent inhibition of B. mandrillaris viability: 82%
B. mandrillaris [9]
  inhibition of amoebic growth: amoebicidal or amoebistatic activity
